Converted amounts (≈) assume the structure as drawn.
Legend:
[1] = system: human leukemia cell line HL-60; experiment: In vitro antitumor/anticancer testing (CCK-8), HL-60; assay type: cell-based; details: 48 h
Method: Each of Tea Product 1 and Conventional Tea Product obtained in section A of this example was used to prepare test tea samples according to the method described below. A proper amount of the respective tea product was added into sterile water to prepare a stock solution with a concentration of 100 mg/mL, followed by using a membrane filter with a pore size of 0.22 μm to conduct vacuum filtration and sterilization. The resulting stock solution was diluted with a respective complete medium shown in Table 3 below to form test tea samples with different concentrations. In other words, the thus obtained test tea samples to be used for treating a respective cancer/tumor cell line shown in Table 3 were prepared using the same complete medium as that for the respective cancer/tumor cell line. […] Specifically, each of the aforesaid commercially available agents was subjected to the method described below to prepare comparative test samples. A proper amount of a respective commercially available agent was dissolved in phosphate-buffered saline (PBS) to prepare a stock solution with a concentration of 5 mg/mL, followed by using a membrane filter with a pore size of 0.22 μm to conduct vacuum filtration and sterilization. The resulting stock solution was diluted with a respective complete medium shown in Table 3 below to form comparative test samples with different concentrations. To be specific, the comparative test samples prepared from the respective commercially available agent have the concentrations shown in Table 2 below. The thus obtained comparative test samples to be used for treating a respective cancer/tumor cell line shown in Table 3 were prepared using the same complete medium as that for the respective cancer/tumor cell line. […] The cultivation of each cancer/tumor cell line is described as follows. […] Afterwards, a cell suspension having a cell density of 1.0×10^4 cells/mL was prepared. […] As experimental groups, the tumor/cancer cells of each cell line were treated with the test tea samples prepared from one or more of the tea products and the comparative test samples prepared from one or more of the commercially available agents as obtained in section B of this example (for more detailed information about the tea product(s) and the commercially available product (s) used to treat each cell line, please see Table 4 below). To be specific, 6 to 10 test tea samples prepared from the same tea product and having different concentrations, as well as 6 to 10 comparative test samples prepared from the same commercially available agent and having different concentrations, were utilized to treat the tumor/cancer cells of each cell line. For each experimental group, 6 repetitions of tumor/cancer treatment were performed. For the control group, 100 μL of PBS was added to a well containing the medium and the cancer/tumor cells of the respective cell line. For the blank group, 100 μL of PBS was added to a well containing a complete medium the same as that used for cultivation of the cancer/tumor cells of the respective cell line. After the treatment described above, cultivation was conducted in an incubator (37° C., 100% relative humidity, 5% CO2) for 48 hours. Subsequently, the liquid containing the medium and the sample in the well was removed, and a respective complete medium (shown in Table 3 above) containing 10% CCK-8 (Cell Counting Kit-8)(Dojindo Molecular Technologies, Inc., Cat. No. CK04-13) was added. Cultivation was performed in an incubator (37° C.) for 2 to 4 hours, followed by gently shaking.

[2] = system: human liver cancer cell line HepG2; experiment: In vitro antitumor/anticancer testing (CCK-8), HepG2; assay type: cell-based; details: 48 h
Method: Each of Tea Product 1 and Conventional Tea Product obtained in section A of this example was used to prepare test tea samples according to the method described below. A proper amount of the respective tea product was added into sterile water to prepare a stock solution with a concentration of 100 mg/mL, followed by using a membrane filter with a pore size of 0.22 μm to conduct vacuum filtration and sterilization. The resulting stock solution was diluted with a respective complete medium shown in Table 3 below to form test tea samples with different concentrations. In other words, the thus obtained test tea samples to be used for treating a respective cancer/tumor cell line shown in Table 3 were prepared using the same complete medium as that for the respective cancer/tumor cell line.
Specifically, each of the aforesaid commercially available agents was subjected to the method described below to prepare comparative test samples. A proper amount of a respective commercially available agent was dissolved in phosphate-buffered saline (PBS) to prepare a stock solution with a concentration of 5 mg/mL, followed by using a membrane filter with a pore size of 0.22 μm to conduct vacuum filtration and sterilization. The resulting stock solution was diluted with a respective complete medium shown in Table 3 below to form comparative test samples with different concentrations. To be specific, the comparative test samples prepared from the respective commercially available agent have the concentrations shown in Table 2 below. The thus obtained comparative test samples to be used for treating a respective cancer/tumor cell line shown in Table 3 were prepared using the same complete medium as that for the respective cancer/tumor cell line.
The following cancer/tumor cells purchased from Chinese Academy of Sciences, Shanghai Institutes for Biological Sciences, Institute of Biochemistry and Cell Biology were used for in vitro antitumor/anticancer testing: human liver cancer cell line HepG2, human ovarian cancer cell line SK-OV-3, human cervical cancer cell line Hela, human lung cancer cell line A549, human glioblastoma cell line U-87MG, human mammary gland/duct cancer cell line BT-474, human prostate cancer cell line PC-3, human leukemia cell line HL-60, human gastric cancer cell line SMMC-7721, human colon cancer cell line HCT-116, human squamous cell carcinoma cell line A431, human leukemia cell line K562, human pancreatic cancer cell line PANC-1, and human gastric cancer cell line BGC-823.
The cultivation of each cancer/tumor cell line is described as follows. The cancer/tumor cancer cells were cultivated in the respective complete medium supplemented with 100 μg/mL penicillin and 100 μg/mL streptomycin in an incubator (37° C., 100% relative humidity, 5% CO2). When adherent cancer/tumor cells reached 80% confluence during the log-phase, cell detachment was conducted using 0.6 mL of 0.3% trypsin. Afterwards, a cell suspension having a cell density of 1.0×10^4 cells/mL was prepared. 100 μL of the cell suspension (i.e. 1000 cancer/tumor cells) was added into wells of a 96-well plate (Cat. No. 3599, Corning Costar), followed by cultivation in an incubator (37° C., 100% relative humidity, 5% CO2) for 24 hours.
As experimental groups, the tumor/cancer cells of each cell line were treated with the test tea samples prepared from one or more of the tea products and the comparative test samples prepared from one or more of the commercially available agents as obtained in section B of this example (for more detailed information about the tea product(s) and the commercially available product (s) used to treat each cell line, please see Table 4 below). To be specific, 6 to 10 test tea samples prepared from the same tea product and having different concentrations, as well as 6 to 10 comparative test samples prepared from the same commercially available agent and having different concentrations, were utilized to treat the tumor/cancer cells of each cell line. […]

Row | IC50 ([1]; HL-60) | IC50 ([2]; Table 5 concentration series) | SMILES | Percent growth inhibition ([1]; 2.5 μg/mL) | Percent growth inhibition ([1]; 5 μg/mL) | Percent growth inhibition ([1]; 10 μg/mL) | Percent growth inhibition ([1]; 20 μg/mL) | Percent growth inhibition ([1]; 40 μg/mL) | Percent growth inhibition ([1]; 80 μg/mL) | Percent growth inhibition ([1]; 160 μg/mL) | Percent growth inhibition ([1]; 320 μg/mL) | Percent growth inhibition ([1]; 640 μg/mL) | inhibition at 0.078125 µg/mL ([2]; 0.078125 μg/mL, read-out: Percent growth inhibition) | inhibition at 0.15625 µg/mL ([2]; 0.15625 μg/mL, read-out: Percent growth inhibition) | inhibition at 0.3125 µg/mL ([2]; 0.3125 μg/mL, read-out: Percent growth inhibition) | inhibition at 0.625 µg/mL ([2]; 0.625 μg/mL, read-out: Percent growth inhibition) | inhibition at 1.25 µg/mL ([2]; 1.25 μg/mL, read-out: Percent growth inhibition) | inhibition at 2.5 µg/mL ([2]; 2.5 μg/mL, read-out: Percent growth inhibition) | inhibition at 5 µg/mL ([2]; 5 μg/mL, read-out: Percent growth inhibition)
1 | IC50 (μg/mL) = 44.96 |  | O=C(O[C@@H]1Cc2c(O)cc(O)cc2O[C@@H]1c1cc(O)c(O)c(O)c1)c1cc(O)c(O)c(O)c1 [EGCG monomer, epigallocatechin gallate] | 5.10% | 12.43% | 16.22% | 27.14% | 44.21% | 76.96% | 73.03% | 83.90% | 91.13% |  |  |  |  |  |  | 
2 |  | 0.457 µg/mL (≈ 3.52 µM) | O=c1[nH]cc(F)c(=O)[nH]1 [5-fluorouracil] |  |  |  |  |  |  |  |  |  | 10.9% | 24.5% | 37.5% | 63.7% | 83.3% | 86% | 89.1%
